Patent publication US20130165368A1, “ANTIMICROBIAL COMPOUNDS” (priority 2010, published 2013)
Where two headings read alike, the source gives them in different places.

Legend:
Format in all cases: cell-based
Providencia rettgeri = assay: MIC agar dilution, micro-organism 3 (7475); conditions: Providencia rettgeri 7475, read-out: MIC
In short: (§1)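 Twofold dilutions of compound emulsions in water were set in Isosensitest agar with Brazier's CCEY medium, egg yolk and lysed horse blood. Spots of 1 µL from 0.5 McFarland suspensions diluted 1/15 were incubated aerobically at 37 °C and read at 22 and 48 h. MIC (mmol/L) was the lowest concentration giving <10 colonies.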

Steptococcus pyogenes = assay: MIC agar dilution, micro-organism 11 (8306); conditions: Steptococcus pyogenes 8306, read-out: MIC
In short: as §1

Staphylococcus aureus = assay: MIC agar dilution, micro-organism 13 (6571); conditions: Staphylococcus aureus 6571, read-out: MIC
In short: as §1

Enterococcus faecium = assay: MIC agar dilution, micro-organism 16 (7171); conditions: Enterococcus faecium 7171, read-out: MIC
In short: as §1

Candida glabrata = assay: MIC agar dilution, micro-organism 20 (3943); conditions: Nakaseomyces glabratus, Candida glabrata 3943, read-out: MIC
In short: as §1

[1] = system: Enterococcus faecalis (VRE) PHLS URINE 2000; assay: MIC agar dilution, VRE strain 21
Method: (§2) Molar equivalent concentrations were used to allow comparison between compounds of differing molecular mass. Due to weighing difficulties, any compound in solid form was melted in a water bath prior to dilution. To make ten-times strength concentrations, which takes into account agar dilution, 0.0352 mmol of each compound was weighed into plastic universal bottles and 4 mL of sterile distilled water (SDW) was added. To produce a homogenous emulsion the universals were vortexed; once achieved the emulsions were serial diluted by adding 2 mL to 2 mL of SDW.
(§3) For every 100 mL of Isosensitest agar (IST) (CM0471; Oxoid, Basingstoke, England), 3.1 g of the IST powder was added to 100 mL SDW (as per manufacturer's instructions) and sterilised for 15 minutes at 121° C. Once sterilised, the molten agar was cooled to 50° C. in a water-bath. Subsequently 4.8 g of CCEY powder (BC2160; Bioconnections, Wetherby, England), also known as Brazier's medium, was added to 100 mL SDW for every 100 mL of agar needed. This was then sterilised for 15 minutes at 121° C. Once sterilised the molten agar was cooled to 50° C. in a water-bath and 4 mL of egg-yolk emulsion (S2073; TCS Biosciences Ltd, Buckingham, United Kingdom) and 1 mL of lysed defibrinated horse blood (HB035; TCS Biosciences Ltd, Buckingham, United Kingdom) were also added for every 100 mL needed. Horse blood lysis is achieved by dilution to half concentration with SDW; when fully lysed the mixture will turn dark red in colour.
(§4) 18 mL agar was added to each universal and then poured into sterile Petri dishes. This step creates a 1/10 dilution resulting in agar plates of the required strength. Control plates for each set of strains were created by adding 18 mL of agar to 2 mL of SDW.
(§5) Suspensions of each bacterial species were prepared with a density equal to that of a 0.5 McFarland standard using a densitometer. All suspensions were made using sterile distilled water and fresh 18-20 hour cultures. As a 0.5 McFarland standard contains 1.5×10^8 CFU/mL and the multipoint inoculators applies 1 μL spots of liquid, each bacterial suspension was diluted 1/15 (20 μL suspension to 280 μL sterile distilled water).
(§6) Bacterial suspensions were prepared from fresh 18-24 hour cultures as previously described. 1 μL of each strain was inoculated onto all 100 agar plates containing a different chemical concentration and the 2 control plates. This was done using a multipoint inoculator which inoculates 20 strains per plate. All plates were incubated for 22 hours at 37° C. in aerobic conditions.
(§7) Each plate was examined for bacterial growth after 22 and 48 hours, with each being incubated in between examinations. A positive result was recorded as growth of ≧10 colonies. A negative result was recorded as growth of <10 colonies as this is equivalent to 99.9% inhibition. The lowest concentration of chemical that inhibited growth was recorded as the MIC. The results are recorded in Table IV below, where the numbers are quoted in mmol/L.
(§8) Given the positive performance of the ethoxylates of lauryl alcohol in reducing the MIC for a number of the micro-organisms tested, further MIC testing of Laureth-1 [C12E1] through to Laureth-8 [C12E8] was conducted on each of the following: • 10 strains of vancomycin-resistant enterococci (VRE)—listed in Table V below; and • 20 strains of methicillin-resistant Staphylococcus aureus (MRSA)—listed in Table VI.
(§9) The alkanol, alkanol derivatives, agar plates, and inocula were all prepared in the same way as described above.
(§10) The plates were examined in the same manner as described above and the results are recorded in Table VII below, where the numbers are quoted in mmol/L.

[2] = system: Enterococcus casseliflavus (VRE) Clin waste; assay: MIC agar dilution, VRE strain 23
Method: as §2, §3, §4, §5, §6, §7, §8, §9, §10

MRSA BEL 97597 = assay: MIC agar dilution, MRSA strain 33; conditions: Staphylococcus aureus
Method: as §2, §3, §4, §5, §6, §7, §8, §9, §10

[3] = system: MRSA GER 1966/97 (Hanover IIIc); assay: MIC agar dilution, MRSA strain 36; conditions: Staphylococcus aureus
Method: as §2, §3, §4, §5, §6, §7, §8, §9, §10

MRSA FRA 95035 = assay: MIC agar dilution, MRSA strain 37; conditions: Staphylococcus aureus
Method: as §2, §3, §4, §5, §6, §7, §8, §9, §10

MRSA EMRSA 16 21354/95 = assay: MIC agar dilution, MRSA strain 44; conditions: Staphylococcus aureus
Method: as §2, §3, §4, §5, §6, §7, §8, §9, §10

MRSA EMRSA 16 00998/95 = assay: MIC agar dilution, MRSA strain 47; conditions: Staphylococcus aureus
Method: as §2, §3, §4, §5, §6, §7, §8, §9, §10

MRSA EMRSA 16 07924/95 = assay: MIC agar dilution, MRSA strain 49; conditions: Staphylococcus aureus
Method: as §2, §3, §4, §5, §6, §7, §8, §9, §10

[4] = Staphylococcus aureus, 22 h, 22 hrs
[5] = Staphylococcus aureus, 48 h, 48 hrs

Measured: MIC

CCCCCCCCCCCCOCCOCCOCCOCCOCCOCCOCCO [L7, Heptaethylene Glycol Monododecyl Ether]
440 µM: [1]; 22 hrs
880 µM: [1]; 48 hrs
> 880 µM: Providencia rettgeri; 22 hrs | Providencia rettgeri; 48 hrs | Enterococcus faecium; 22 hrs | Enterococcus faecium; 48 hrs | Candida glabrata; 22 hrs | Candida glabrata; 48 hrs
> 440 µM: MRSA FRA 95035; 22 hrs | MRSA FRA 95035; 48 hrs | MRSA EMRSA 16 21354/95; 22 hrs | MRSA EMRSA 16 21354/95; 48 hrs | MRSA EMRSA 16 00998/95; 22 hrs | MRSA EMRSA 16 00998/95; 48 hrs | MRSA EMRSA 16 07924/95; 22 hrs | MRSA EMRSA 16 07924/95; 48 hrs
220 µM: [2]; 22 hrs | [2]; 48 hrs | MRSA BEL 97597; 22 hrs | MRSA BEL 97597; 48 hrs
110 µM: Steptococcus pyogenes; 22 hrs | Steptococcus pyogenes; 48 hrs | Staphylococcus aureus; 22 hrs | Staphylococcus aureus; 48 hrs | [3]; 22 hrs | [3]; 48 hrs

CCCCCCCCCCCCOCCOCCOCCO [L3, Triethylene Glycol Monododecyl Ether]
110 µM: Enterococcus faecium; 22 hrs | Enterococcus faecium; 48 hrs | Candida glabrata; 22 h, 22 hrs | Candida glabrata; 48 h, 48 hrs | MRSA EMRSA 16 21354/95; 22 hrs | MRSA EMRSA 16 21354/95; 48 hrs
> 880 µM: Providencia rettgeri; 22 hrs | Providencia rettgeri; 48 hrs
≤ 50 µM: Steptococcus pyogenes; 22 h, 22 hrs | Steptococcus pyogenes; 48 h, 48 hrs | Staphylococcus aureus; [4] | Staphylococcus aureus; [5]
220 µM: [1]; 22 hrs | [1]; 48 hrs | [2]; 22 hrs | [2]; 48 hrs
55 µM: MRSA BEL 97597; 22 hrs | MRSA BEL 97597; 48 hrs | [3]; 22 hrs | [3]; 48 hrs | MRSA FRA 95035; 22 hrs | MRSA FRA 95035; 48 hrs | MRSA EMRSA 16 00998/95; 22 hrs | MRSA EMRSA 16 00998/95; 48 hrs | MRSA EMRSA 16 07924/95; 22 hrs | MRSA EMRSA 16 07924/95; 48 hrs

CCCCCCCCCCCCOCCOCCOCCOCCOCCOCCO [L6, Hexaethylene Glycol Monododecyl Ether]
440 µM: Enterococcus faecium; 22 hrs | MRSA FRA 95035; 48 hrs | MRSA EMRSA 16 21354/95; 48 hrs | MRSA EMRSA 16 00998/95; 48 hrs
≤ 50 µM: Steptococcus pyogenes; 22 h, 22 hrs | Steptococcus pyogenes; 48 h, 48 hrs
110 µM: Staphylococcus aureus; [4] | Staphylococcus aureus; [5] | MRSA BEL 97597; 22 hrs | MRSA BEL 97597; 48 hrs | [3]; 22 hrs | [3]; 48 hrs | MRSA EMRSA 16 07924/95; 22 hrs | MRSA EMRSA 16 07924/95; 48 hrs
220 µM: Enterococcus faecium; 48 hrs | Candida glabrata; 22 h, 22 hrs | Candida glabrata; 48 h, 48 hrs | [1]; 22 hrs | [1]; 48 hrs | [2]; 22 hrs | [2]; 48 hrs | MRSA FRA 95035; 22 hrs | MRSA EMRSA 16 21354/95; 22 hrs | MRSA EMRSA 16 00998/95; 22 hrs
> 880 µM: Providencia rettgeri; 22 hrs | Providencia rettgeri; 48 hrs

CCCCCCCCCCCCOCCOCCO [L2, Diethylene Glycol Monododecyl Ether]
220 µM: [1]; 22 hrs | [1]; 48 hrs | [2]; 22 hrs | [2]; 48 hrs | MRSA FRA 95035; 22 hrs | MRSA FRA 95035; 48 hrs
> 880 µM: Providencia rettgeri; 22 hrs | Providencia rettgeri; 48 hrs | Enterococcus faecium; 22 hrs | Enterococcus faecium; 48 hrs
110 µM: Steptococcus pyogenes; 22 h, 22 hrs | Steptococcus pyogenes; 48 h, 48 hrs | Staphylococcus aureus; [4] | Staphylococcus aureus; [5] | Candida glabrata; 22 h, 22 hrs | Candida glabrata; 48 h, 48 hrs | MRSA BEL 97597; 22 hrs | MRSA BEL 97597; 48 hrs | [3]; 22 hrs | [3]; 48 hrs | MRSA EMRSA 16 21354/95; 22 hrs | MRSA EMRSA 16 21354/95; 48 hrs | MRSA EMRSA 16 00998/95; 22 hrs | MRSA EMRSA 16 00998/95; 48 hrs | MRSA EMRSA 16 07924/95; 22 hrs | MRSA EMRSA 16 07924/95; 48 hrs
